Columns and labels:
CD36 = target: T1, CD36 (Rattus norvegicus, UniProt Q07969); experiment: Competition binding of photoactivatable [125I]-Tyr-Bpa-Ala-Hexarelin to CD36 in rat cardiac membranes; conditions: competition with [125I]-Tyr-Bpa-Ala-Hexarelin, rat heart membranes; for IC50: read-out: IC50 (μM), binding affinity for CD36
T1 construct: from tissue; host or cells: Heart (cardiac membranes) of Sprague Dawley rats from Charles River
Method: Hearts from Sprague Dawley rats (300-325 g) from Charles River were cut into small pieces and homogenized with a Polytron® at low speed, 3×15 sec in buffer A (10 mM NaHCO3, 5 mM NaN3, 10 μM Pefabloc®, 0.1 μM Aprotinin, 1 μM Pepstatin A, 1 μM Leupeptin, pH 7.0) at a concentration of […] of tissue. The homogenate was first centrifuged at 8,700×g for 20 min in a Sorvall® centrifuge and the supernatant was collected on ice. The pellet was resuspended and re-homogenized with a Glass-Teflon® Potter by 5 strokes. This homogenate was recentrifuged at 8,700×g for 10 min and the resulting supernatant was combined with the first collected supernatant. The combined supernatant was centrifuged at 35,000×g for 20 min. The pellet fraction obtained was resuspended in Buffer B (20 mM Tris-maleate, 0.6M KCl, pH 6.8) in a volume corresponding to 20 mL/g of fresh tissue using a glass homogenizer with a Teflon pestle. The resulting suspension was centrifuged again at 35,000×g for 60 min. and the pellet fraction obtained was resuspended in Buffer C (10 mM Tris/HCl buffer pH 7.4) and thoroughly homogenized in a glass with a Teflon® pestle (20 ml/g of fresh tissue). This suspension was submitted to another centrifugation at 35,000×g for 60 min. The collected pellet was resuspended in 50 mM Tris/HCl buffer pH 7.4) containing 2 mM EGTA in a final volume corresponding to 1-2 mL/g of fresh tissue. The membrane preparation obtained was frozen at −80° C. Protein concentration was determined using the bicinchoninic acid (BCA) method, employing BSA as standard.
The reaction was started by adding 3 nmol of H2O2 for 5 min at room temperature. This step was repeated twice with a period of 5 min of incubation for each addition. The reaction was stopped by diluting the mixture with 1 mL of 0.1% TFA. The radioiodinated peptide was purified by HPLC on a reverse-phase Vydac® C18 column with a 60-min linear gradient from 20% to 50% of acetonitrile in 0.1% TFA. The eluted radiolabelled tracer was collected, aliquoted (50×10^6 cpm/fraction) and stored at −80° C.
Binding studies with MPE-298 were done with increasing concentrations from 0.01 to 5 μM of competition ligands. Nonspecific binding was defined as binding not displaced by 50 μM corresponding peptide. All peptide containing solutions were diluted in Buffer B. Buffer A and B were degassed under vacuum, and used in capped tubes in order to minimize lipid peroxidation. Before the incubation period, all tubes were put under a low flow of nitrogen. All material was kept on ice and the binding assay was performed in darkness. After an incubation period of 60 min at 22° C. (vortexing every 15 min), membranes were submitted to irradiation with UV lamps (365 nm) for 15 min at 4° C. After centrifugation at 12,000×g for 15 minutes, the pellets were resuspended in 40 μl of sample buffer (62 mM Tris-HCl, pH 6.8, 2% SDS, 10% glycerol, 15% 2-mercaptoethanol, and 0.05% bromophenol blue), and boiled for 5 min prior to being subjected to electrophoresis. Proteins (50 μg/40 μl) were separated on a 7.5% SDS-PAGE Bio-Rad® Mini-Protean electrophoresis system (150 V for 1 h). The gels resulting from SDS/PAGE were fixed, colored in Coomassie Brilliant Blue R-250, dried, exposed to a storage phosphor intensifying screen (Amersham Biosciences), and analysed using a Typhoon® PhosphorImager (GE Healthcare Life Sciences®). […] The curves were analysed by using software package (Graphpad® prism version 7.0).

[1] = system: R-FSL-1 (TLR2 agonist)-induced NO production in RAW macrophage cell line; experiment: Nitric oxide (NO) production induced by TLR2 agonist R-FSL-1 in RAW macrophage cell line; assay type: cell-based, murine; conditions: RAW macrophages; for suppression of NO production compared with positive control MPE-001 at the same concentration / suppression of R-FSL-1-mediated NO production at 10^−7 M: 10^−7 M, FIG. 4F; for suppression of R-FSL-1-mediated NO production at 10^−7 M: further analyses; for R-FSL-1-mediated NO production, % of control: control = R-FSL-1 only, noticeable reduction without reaching significance (P<0.01)
Method: The murine RAW1 macrophage cell line was obtained from American Type Cell Collection (ATCC #TIB-71), seeded at 1.5×10^5 cells/well in Dulbecco's Modified Eagle's medium (DMEM) containing 100 U/mL of penicillin (Pen) and 100 μg/mL of streptomycin (Strep) on a 48-well plate (Costar® #3548), and incubated at 37° C. with 5% CO2. After 2 h, the cell culture medium of adhered cells was removed and replaced by DMEM-Pen/Strep medium containing 0.2% of bovine serum albumin (BSA), and supplemented with the cyclic peptides at a concentration of 10^−6 or 10^−7 M. MPE-001 (DBG178, His-D-Trp-Ala-AzaTyr-D-Phe-Lys-NH2) and [azaLys^6]-GHRP-6 (His-D-Trp-Ala-Trp-D-Phe-azaLys-NH2, negative control) at 10^−6 M were used as positive and negative controls, respectively. After 1 h pre-incubation, the cells were stimulated overnight using the TLR2 ligand fibroblast-stimulating lipopeptide (R-FSL-1) (Invivogen® #L7022) at a concentration of 300 ng/mL. Supernatants were then collected for nitrite production analysis by fluorescence using 2,3-diaminonaphthalene (DAN). Briefly, 25 μL of sample was incubated with 0.5 μg of DAN in a 100 μL final volume of phosphate buffer (50 mM, pH 7.5) at room temperature in the dark. After 15 min, the reaction was stopped with 20 μL of NaOH (2.8N) and the plate was read using a fluorescence plate reader (TECAN® Safire, λexc 365 nm and λem 430 nm).

[2] = system: R-FSL-1 (TLR2 agonist)-induced TNF-α and CCL-2 release in RAW macrophages; experiment: R-FSL-1-induced TNF-α and CCL-2 release in RAW macrophages; assay type: cell-based, murine; conditions: 10^−7 M
Method: The murine RAW1 macrophage cell line was obtained from American Type Cell Collection (ATCC #TIB-71). RAW cells were seeded at 150,000 cells per well in a 48-well plate (Costar® #3548) and weaned overnight in medium (DMEM supplemented 1% penicillin/streptomycin) at 37° C. with 5% CO2. The next day, the medium was changed to DMEM-1% penicillin/streptomycin supplemented with 0.2% BSA. The cells were first pretreated with 300 μL of azapeptides DBG178 (MPE-133, reference standard), 25 (MPE-210), 26 (MPE-266), 28 (MPE-268), 32 (MPE-267), 33 (MPE-298), 38 (MPE-308), 35 (MPE-300), 39 (MPE-310) and azaLys6-GHRP-6 (as negative control) at 10^-7M for 30 min. Then, […] of the TLR2 agonist, R-FSL-1 (300 ng/ml final concentration, R-FSL-1, Invivogen® #L7022) was added for 4 h period of incubation at 37° C. with 5% CO2. At the end of the incubation period, media were collected and stored at −80° C. for TNF-α and CCL-2 assays using ELISA kits (EbioScience® #88-7391 and #88-7324). Results were analyzed by analysis of variance (ANOVA) with post hoc comparisons using Dunnett's test with a statistical software package (Graph Pad Prism® version 7.0). P<0.05 was considered statistically significant.

[3] = system: R-FSL-1 (TLR2 agonist)-induced TNF-α and CCL-2 release in RAW macrophages; experiment: as above; assay type: cell-based, murine; conditions: 10^−7 M; remark: listed apart in the source
apoE−/− mice = experiment: Murine atherosclerosis model (apoE−/− mice on atherogenic diet), aortic lesions; assay type: in vivo; conditions: 300 nmol/kg daily s.c. for 8 weeks
Method: Experiments were performed in male apoE−/− mice fed an atherogenic diet (D12108, cholate-free AIN-76A semi-purified diet, Research Diets Inc., New Brunswick, NJ) from 4 weeks of age. MPE-298 (300 nmol/kg), MPE-267 (300 nmol/kg) or vehicle (0.9% NaCl), were administered by daily by subcutaneous (s.c.) injections for 8 weeks, from 12 weeks of age, as shown schematically in FIG. 8A.

T1 sequence (Q07969 whole entry): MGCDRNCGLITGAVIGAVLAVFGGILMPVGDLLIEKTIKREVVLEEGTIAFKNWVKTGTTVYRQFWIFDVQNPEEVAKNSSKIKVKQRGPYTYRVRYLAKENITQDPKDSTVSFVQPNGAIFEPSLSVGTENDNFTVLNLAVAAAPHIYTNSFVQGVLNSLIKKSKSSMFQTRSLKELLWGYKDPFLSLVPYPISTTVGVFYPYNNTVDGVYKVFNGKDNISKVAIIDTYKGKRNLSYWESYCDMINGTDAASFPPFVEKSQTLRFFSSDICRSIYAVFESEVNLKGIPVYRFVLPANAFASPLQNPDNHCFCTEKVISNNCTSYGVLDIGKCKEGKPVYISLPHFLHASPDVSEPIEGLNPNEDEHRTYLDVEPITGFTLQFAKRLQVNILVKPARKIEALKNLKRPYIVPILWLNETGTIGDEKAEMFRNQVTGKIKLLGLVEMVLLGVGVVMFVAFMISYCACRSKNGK

binding to CD36 (in words) (CD36)	IC50 (CD36)	SMILES	suppression of NO production compared with positive control MPE-001 at the same concentration [1]	suppression of R-FSL-1-mediated NO production at 10^−7 M [1]	R-FSL-1-mediated NO production, % of control [1]	effect on R-FSL-1-induced CCL-2 release [2]	effect on R-FSL-1-induced TNF-α release [2]	inhibitory effect on R-FSL-1-induced CCL-2 release compared with reference standard DBG178 (MPE-001) [3]	suppression of R-FSL-1-mediated NO production ([1]; at the concentration tested (10^−6 or 10^−7 M), FIGS. 4A to 4F)	reduction of aortic lesions relative to 0.9% NaCl (vehicle) (apoE−/− mice)
no significant binding affinity		C=CCN1CC#CCN(N)C(=O)N[C@H](Cc2c[nH]c3ccccc23)C(=O)N[C@@H](C)C(=O)N[C@@H](Cc2c[nH]c3ccccc23)C(=O)N[C@H](Cc2ccccc2)C(=O)N[C@H](C(N)=O)CCCC1 [MPE-268]	more important	significant suppression	about 80 % of control	no significant effect	no significant effect			
	0.89 µM	C=CCN1CC#CCN(NC(C)=O)C(=O)N[C@H](Cc2c[nH]c3ccccc23)C(=O)N[C@@H](C)C(=O)N[C@@H](Cc2c[nH]c3ccccc23)C(=O)N[C@H](Cc2ccccc2)C(=O)N[C@H](C(N)=O)CCCC1 [MPE-310]	more important	significant suppression	about 80 % of control	significant inhibitory effect	significant inhibitory effect	significantly higher		
	0.24 µM	C=CCN1CC#CCN(NC(=O)[C@H](C)N)C(=O)N[C@@H](C)C(=O)N[C@@H](Cc2c[nH]c3ccccc23)C(=O)N[C@H](Cc2ccccc2)C(=O)N[C@H](C(N)=O)CCCC1 [MPE-267]				significant inhibitory effect	significant inhibitory effect		significant suppression	28%
